Values of other authors, collected in US20030190375A1, “Therapeutical use of sophora flavescens or sophora subprostrata extracts” (priority 2000, published 2003).

What was measured:
Ishikawa-Var-I cells = conditions: Milligan et al 1999
[1] = Huang, The Pharmacology of Chinese Herbs, 1993

| Compound | oestrogenic potency in vitro (stimulation of alkaline phosphatase) (Ishikawa-Var-I cells) | toxic effects in animal studies [1] |
| --- | --- | --- |
| CC(C)=CCc1c(O)cc(O)c2c1O[C@H](c1ccc(O)cc1)CC2=O [8-prenylnaringenine] | significantly more active than the long-familiar phyto-oestrogens such as cumesterol, genistone or daidzin, and produced only a slightly weaker effect than 17β oestradiol | – |
| O=C1CCC[C@@H]2[C@H]3CCC[N+]4([O-])CCC[C@@H](CN12)[C@@H]34 (some centres unmarked) [oxymatrine] | – | toxic effects could be shown |
